Series [1] has as its system soybean seedlings cv RAS 04. The following applies: in vivo.
Procedure: Disinfected seed surface of the soybean cultivar RAS 04 from RAGT were treated with the laboratory seed dressing equipment called Bol Hégé with the following products: • ADM 00050 F 1 A (500 SC) at 0.002-0.005-0.01-0.02 and 0.05 L/100 Kg seeds (1-2.5-5-10-25 g ai/100 Kg seeds), without coating agent. • Vibrance duo (25+25 g ai/L of Fludioxonil and Sedaxane SC) at 0.2 L/100 Kg seeds, corresponding to 5+5 g ai/100 Kg seeds of Fludioxonil and Sedaxane • Santhal (465 g ai/L of Metalaxyl-M (Mefenoxam) EC) at 0.064 L/100 Kg seeds (3 g ai/100 Kg seeds of Metalaxyl-M=Mefenoxam) without coating agent • Sterile distilled water Untreated Control, without coating agent
(§1) Treated or untreated soybean seeds were allowed to dry under laminar flow for 24 h before sowing.
Plastic Box of 500 cc were filled with 250 ml extra fine (vermiculite up to 2 5 cm of the top 3 boxes per treatment. 50 ml of sterilized soybean seeds previously inoculated with Rhizoctonia solani (strain RsolAG 2 2) grounded and mixed with XF vermiculite were spread over the 250 ml vermiculite. Same was done with the non-inoculated seeds serving as a reference for the germination test.
The inoculum was covered with 100 ml (1 cm) of XF vermiculite, and then 9 untreated or treated 9 soybean seeds were sown in each box. Seeds were covered with 150 ml (1.5 cm) of XF vermiculite. […]
Series [2] has as its system soybean seedlings cv RAS 04. The following applies: in vivo. This is another data set of the same source.
Procedure: as §1
Plastic Box of 500 cc were filled with 250 ml extra fine (vermiculite up to 2 5 cm of the top 3 boxes per treatment. 50 ml of sterilized soybean seeds previously inoculated with Sclerotinia sclerotiorum (strain Sscl wt) grounded and mixed with XF vermiculite were spread over the 250 ml vermiculite. Same was done with the non-inoculated seeds serving as a reference for the germination test.
The inoculum was covered with 100 ml (1 cm) of XF vermiculite, and then 9 untreated or treated 9 soybean seeds were sown in each box. Seeds were covered with 150 ml (1.5 cm) of XF vermiculite. The substrate was moistened with 200 ml of tap water and then weekly once with tap water and once with a 0 5 g/l nutrients solution (Plant Prod, Ltd N P K 20 20 20 and micronutrients). The lid was punctured and then placed on each box for 5 days to maintain saturated humidity. Boxes were placed in a climatic chamber with a photoperiod of 16 h light/8 h darkness, 2424° C. day/1818° C. night and a relative humidity of 85.
Phytotoxicity assessments were carried out checking analyzing the following parameters: • a. Rate of emergence of soybean seedlings after 7 days post sowing dps. • b. General development (pictures) of the aerial part of the soybean plants after 3 weeks of incubation

Each structure is given as a SMILES string. Like-named read-outs stand apart in the source and are kept apart here.

Experimental findings from US20240172750A1, “5-Fluoro-4-Imino-3-Methyl-1-Tosyl-3,4-Dihydropyrimidin-2(1H)-One for Controlling Plant Diseases” (Adama Makhteshim Ltd., priority 2021, published 2024) are described below.

As to `COCC(=O)N(c1c(C)cccc1C)[C@H](C)C(=O)OC` [Metalaxyl-M], the “Seedling emergence rate (% of the total)” value in series [1] and in series [2] was 77.8 +/− 6.4a % of the total each time.
